The values below come from PMC7083800, “Production and characterization of Aspergillus niger GH29 family α-fucosidase and production of a novel non-reducing 1-fucosyllactose” (Glycoconjugate Journal, 2019).

This assay has as its system T1, A. niger GH29 α-fucosidase (long version, pPFucA-L).
T1 construct: gene FucA; C-terminal His-tag kept; codon-optimized, secreted from Pichia pastoris
Description: pNP release, absorbance at […] nm. In kind it is biochemical, Aspergillus niger. As to conditions: 50 mM Na-acetate buffer assay, pH 3.6, 45 °C; 0.05-3 mM substrate; read-out: apparent Km.

The Km is the substrate concentration at which the rate is half of its maximum. `C[C@@H]1O[C@@H](Oc2ccc([N+](=O)[O-])cc2)[C@@H](O)[C@H](O)[C@@H]1O` [pNP-fucose, 4-Nitrophenyl α-L-fucopyranoside]: the Km was 390 µM.
